The target in series [1] is T1, S-adenosylmethionine decarboxylase (SAMDC) (Rattus norvegicus, UniProt P17708).
T1 sequence (P17708 68-333 limits assumed): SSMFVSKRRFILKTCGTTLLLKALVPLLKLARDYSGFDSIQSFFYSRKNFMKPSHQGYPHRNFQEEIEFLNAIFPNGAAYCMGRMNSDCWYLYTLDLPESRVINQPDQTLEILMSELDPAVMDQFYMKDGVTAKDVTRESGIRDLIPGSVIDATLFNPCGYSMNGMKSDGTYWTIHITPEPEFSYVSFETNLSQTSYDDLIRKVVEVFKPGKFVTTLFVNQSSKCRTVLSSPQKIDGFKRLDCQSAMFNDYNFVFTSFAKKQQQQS
T1 sequence (P17708 1-67 limits assumed): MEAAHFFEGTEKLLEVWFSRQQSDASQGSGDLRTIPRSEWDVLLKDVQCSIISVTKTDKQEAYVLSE
Put plainly: Inhibition of S-adenosylmethionine decarboxylase (SAMDC). The format is biochemical. The following applies: read-out: IC50, inhibition of the enzyme SAMDC.

Series [2] concerns human T24 bladder carcinoma cells. Put plainly: Inhibition of the growth of human T24 bladder carcinoma cells. It counts as cell-based. The following applies: 120 h, 5 days incubation, concentration at half the maximum inhibition. On the procedure:
The carcinoma cells (1000-1500; ATCC HB 4) are transferred to 96-well microtitre plates and are incubated overnight under the said conditions. The test compound is added in serial dilutions on day 1. The plates are incubated under the said conditions for 5 days. During that period, control cultures undergo at least 4 cell divisions. After the incubation, the cells are fixed with 3.3% (weight/volume=w/v) aqueous glutaraldehyde solution, washed with water and stained with 0.05% (w/v) aqueous methylene blue solution. After washing, the dye is eluted with 3% (w/v) aqueous hydrochloric acid. The optical density (OD) per well, which is directly proportional to the number of cells, is then measured by means of a photometer (Titertek multiskan) at 665 nm. The IC50 values are calculated by means of a computer system using the formula [formula] The IC50 value is defined as the concentration of active ingredient at which the number of cells per well at the end of the incubation period is only 50% of the number of cells in the control cultures. The inhibition of the growth of human T24 bladder carcinoma cells is measured using the method mentioned hereinbefore. The following IC50 values (concentration of the test compound at half the maximum inhibition) are determined using the following Examples: […]

Series [3] relates to human T24 bladder cell carcinomas. Put plainly: Inhibition of the growth of T24 bladder carcinoma cells in vivo (nude mouse). The arrangement: species or system human; BALB/c nude mice. To be noted: for T/C on i.p. administration / T/C on p.o. administration: average for 6 animals. How it is done:
W. Porter (see Cancer Res. 54, 3210-3217 (1994)). Briefly, the procedure is as follows: To determine the maximum tolerable dose (MTD), the compounds according to the invention (for example dissolved in distilled water/0.9% NaCl) are injected i.p. into three mice per group. The dose is increased until the first animals die within a period of 10 days. To determine the anti-tumor activity, for example, small pieces of human T-24 bladder carcinoma cells (ATCC HTB 4) are cultured and transplanted as xenogenic transplants ("xenografts") into female BALB/c nude mice (Bomholtgarden, Copenhagen, Denmark). The anti-tumor treatment using compounds of formula I is started after at least three successive transplants. Tumor fragments weighing approximately 25 mg are transplanted into the left flank of the mouse (n=6 per group). Treatment is started as soon as the tumors have an average tumor volume of from 150 to 200 mm^3. The growth of the tumors is determined twice weekly by measuring mutually perpendicular tumor diameters. The tumor volumes are determined in the manner described by U. Regenass, H. Mett, J. Stanek, M. Muller, D. Kramer and C. W. Porter (see Cancer Res. 54 3210-3217 (1994)) and are given as relative tumor size (i.e. increase in tumor volume relative to the tumor volume at the beginning of treatment) in T/C % (percent treated/control). The test compounds are dissolved in distilled water and diluted with 3 volumes of 0.9% (w/v) NaCl in water.
Using the method mentioned hereinbefore (see also Regenass et al., Cancer Res. 54, 3210-3217 ([…])), the compound of Example 2 of the present Application is administered in accordance with the following treatment scheme to BALB/c nude mice with transplanted human T24 bladder cell carcinomas: The compound is administered p.o. (50, 25 and 12.5 mg/kg) or i.p. (12.5, 6.25 and 3.13 mg/kg). The compound is dissolved in distilled water and diluted with 3 volumes of 0.9% NaCl (w/v) in water.

The nature of series [4]: Maximum tolerable dose (MTD). To be noted: mouse, in vivo, read-out: maximum tolerated dose. The arrangement: species or system mice.

The values below come from patent publication US5840911A, “Imidazole derivatives, their preparation and their use as S-adenosylmethionine decarboxylase (=SAMDC) inhibitors” (Novartis AG, priority 1995, dated 1998).

The structures appear in SMILES notation. pIC50: −log10 of the molar value. Structures can show the parent of a compound that is named as a salt. Where two headings read alike, the source gives them in different places. Some results are limits rather than exact numbers.

What is called pIC50 is the IC50 on a negative log10 scale, so that one unit is a factor of ten.

Consider `N=C(N)c1cccc2c1CCC2=NN1CCN=C1N` [Example 20, 1-[4-(Amidino)-2,3-dihydro-1H-inden-1-ylideneamino]-2-amino-4,5-di-hydro-imidazole dihydrochloride], for which the pIC50 is 8.47 in series [1] and 6.55 in series [2].

For the compound `Cc1ccc(-c2cn(N=C3CCc4c(C(=N)N)cccc43)c(N)n2)cc1` [Example 14, 1-[4-(Amidino)-2,3-dihydro-1H-inden-1-ylideneamino]-2-amino-4-(4-tolyl)-imidazole dihydrochloride], the pIC50 in series [1] was 8.47; in series [2], 5.95.

With `N=C(N)c1cccc2c1CCC2=Nn1cc(-c2ccc(Cl)cc2)nc1N` [Example 12, 1-[4-(Amidino)-2,3-dihydro-1H-inden-1-ylideneamino]-2-amino-4-(4-chlorophenyl)-imidazole dihydrochloride], the pIC50 in series [1] was 8.17; in series [2], 5.81.

With `N=C(N)c1cccc2c1CCC2=Nn1cc(-c2ccccc2)nc1N` [Example 2, 1-[4-(Amidino)-2,3-dihydro-1H-inden-1: -ylideneamino]-2-amino-4-phenyl-imidazole dihydrochloride], the figures for the pIC50 in series [1] and in series [2] were 8.70 and 5.94, respectively. Moreover, the figures for the “T/C on i.p. administration” value in series [3] (3.13 mg/kg), in series [3] (6.25 mg/kg) and in series [3] (12.5 mg/kg) were 34%, 22% and 16%, respectively. Also, the “growth of T24 bladder carcinoma cells in vivo (in words)” value in series [3] (oral and intraperitoneal administration) was “inhibits the growth of T24 bladder carcinoma cells”. Besides, in series [3] (p.o. and i.p.), the “dose-dependence of tumor growth inhibition” value is recorded as “dose-dependence of the action is observed”. The “T/C on p.o. administration” value in series [3] (12.5 mg/kg) was 68%; in series [3] (25 mg/kg) it was 47%; in series [3] (50 mg/kg), 31%. For the same compound, the figures for the MTD at 240 h in series [4] (ip) and in series [4] (po) were 125 mg/kg and above 500 mg/kg, respectively.

As for `COc1ccccc1-c1cn(N=C2CCc3c(C(=N)N)cccc32)c(N)n1` [Example 6, 1-[4-(Armidino)-2,3-dihydro-1H-inden-1-ylideneamino]-2-amino-4-(2-methoxyphenyl)-imidazole dihydrochloride], the pIC50 is 8.08 in series [1] and 5.92 in series [2].

Turning to `N=C(N)c1cccc2c1CCC2=Nn1cc(-c2ccc(F)cc2)nc1N` [Example 16, 1-[4-(Amidino)-2,3-dihydro-1H-inden-1-ylideneamino]-2-amino-4-(4-fluoro-phenyl)-imidazole dihydrochloride], the pIC50 in series [1] was 8.40; in series [2], 5.57.

For the compound `COc1ccc(OC)c(-c2cn(N=C3CCc4c(C(=N)N)cccc43)c(N)n2)c1` [Example 8, 1-[4-(Amidino)-213-dihydro-1H-inden-1-ylideneamino]-2-amino-4-(2,5-di-methoxyphenyl)-imidazole dihydrochloride], the pIC50 is 8.05 in series [1] and 5.80 in series [2].

With `N=C(N)c1cccc2c1CCC2=Nn1cc(-c2ccc(-c3ccccc3)cc2)nc1N` [Example 22, 1-[4-(Amidino)-2,3-dihydro-1H-inden-1-ylideneamino]-2-amino-4-(4-bi-phenylyl)-imidazole dihydrochloride], the pIC50 in series [1] was 7.96; in series [2], 6.36.

On to `CCc1cn(N=C2CCc3c(C(=N)N)cccc32)c(N)n1` [Example 18, 1-[4-(Amidino)-2,3-dihydro-1H-inden-1-ylideneamino]-2-amino-4-ethyl-imidazole dihydrochloride], for which the pIC50 in series [1] is 8.21; in series [2], 5.82.

On to `CC(C)(C)c1ccc(-c2cn(N=C3CCc4c(C(=N)N)cccc43)c(N)n2)cc1` [Example 28, 1-[4-(Amidino)-2,3-dihydro-1H-inden-1-ylideneaminol-2-amino-4-(4-tert-butylphenyl)-imidazoledihydrochloride], for which the pIC50 in series [1] is 8.27; in series [2] it was 6.64.

As to `N=C(N)c1cccc2c1CCC2=Nn1cc(-c2ccc3ccccc3c2)nc1N` [Example 24, 1-[4-(Amidino)-2,3-dihydro-1H-inden-1-ylideneamino]-2-amino-4-(2-naphthyl)-imidazole dihydrochloride], the pIC50 in series [1] is 8.12; in series [2], 5.61.

For the compound `COc1ccc(-c2cn(N=C3CCc4c(C(=N)N)cccc43)c(N)n2)cc1` [Example 4, 1-[4-(Amidino)-2,3-dihydro-1H-inden-1-ylideneamino]-2-amino-4-(4-methoxvphenyl)-imidazole dihydrochloride], the pIC50 in series [1] was 8.44; in series [2], 5.70.

In series [2], `N=C(N)c1cccc2c1CCC2=Nn1ccnc1N` [Example 26, 1-[4-(Amidino)-2,3-dihydro-1H-inden-1-ylideneamino]-2-amino-imidazole dihydrochloride] had a pIC50 of 5.67.

As to `COc1cccc(-c2cn(N=C3CCc4c(C(=N)N)cccc43)c(N)n2)c1` [Example 10, 1-[4-(Amidino)-2,3-dihydro-1 1H-inden-1-ylideneamino]-2-amino-4-(3-methoxyphenyl)-imidazole dihydrochloride], the pIC50 in series [1] is 8.38; in series [2] it was 5.59.
